# Results taken from patent US9688816B2, “Polyetherimide compositions and methods for the manufacture and use thereof” (SABIC Global Technologies B.V., priority 2011, dated 2017).
# Entries after “also recorded” stand apart in the source; their conditions may differ.
# Experiments:
# [1] = test system: alpha or beta in vitro estradiol receptors; test: competitive radio-ligand binding assay, statements that do not separate alpha and beta; design: species or system human; conditions: alpha or beta receptor not separated; for estradiol binding / estradiol displacement: highest concentration 2.5×E-4 M
# [2] = biological target: recombinant human estradiol receptors (rhER) alpha (α) (Homo sapiens (Human), UniProt P03372); test: competitive radio-ligand binding assay, rhER alpha; conditions: at as high as 2.5×E-4 molar concentration
# [3] = biological target: recombinant human estradiol receptors (rhER) beta 1 (β1) (Homo sapiens (Human), UniProt Q92731); test: competitive radio-ligand binding assay, rhER beta 1; conditions: at as high as 2.5×E-4 molar concentration
# Sequence of recombinant human estradiol receptors (rhER) beta 1 (β1) (Q92731 whole entry): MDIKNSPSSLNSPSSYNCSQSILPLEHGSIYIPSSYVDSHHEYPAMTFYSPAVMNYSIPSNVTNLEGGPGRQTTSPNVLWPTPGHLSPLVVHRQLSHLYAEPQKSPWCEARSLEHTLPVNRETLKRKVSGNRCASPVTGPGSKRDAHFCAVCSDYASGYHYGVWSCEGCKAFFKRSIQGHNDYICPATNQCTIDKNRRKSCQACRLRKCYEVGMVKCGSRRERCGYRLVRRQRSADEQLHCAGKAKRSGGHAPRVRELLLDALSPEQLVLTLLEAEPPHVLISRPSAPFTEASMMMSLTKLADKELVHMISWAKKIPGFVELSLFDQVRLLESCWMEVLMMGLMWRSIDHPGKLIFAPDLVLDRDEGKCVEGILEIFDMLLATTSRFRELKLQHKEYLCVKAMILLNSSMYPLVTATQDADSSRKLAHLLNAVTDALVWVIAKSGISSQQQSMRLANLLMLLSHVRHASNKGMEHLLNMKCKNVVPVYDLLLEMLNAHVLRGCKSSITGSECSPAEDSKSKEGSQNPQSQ
# Sequence of recombinant human estradiol receptors (rhER) alpha (α) (P03372 whole entry): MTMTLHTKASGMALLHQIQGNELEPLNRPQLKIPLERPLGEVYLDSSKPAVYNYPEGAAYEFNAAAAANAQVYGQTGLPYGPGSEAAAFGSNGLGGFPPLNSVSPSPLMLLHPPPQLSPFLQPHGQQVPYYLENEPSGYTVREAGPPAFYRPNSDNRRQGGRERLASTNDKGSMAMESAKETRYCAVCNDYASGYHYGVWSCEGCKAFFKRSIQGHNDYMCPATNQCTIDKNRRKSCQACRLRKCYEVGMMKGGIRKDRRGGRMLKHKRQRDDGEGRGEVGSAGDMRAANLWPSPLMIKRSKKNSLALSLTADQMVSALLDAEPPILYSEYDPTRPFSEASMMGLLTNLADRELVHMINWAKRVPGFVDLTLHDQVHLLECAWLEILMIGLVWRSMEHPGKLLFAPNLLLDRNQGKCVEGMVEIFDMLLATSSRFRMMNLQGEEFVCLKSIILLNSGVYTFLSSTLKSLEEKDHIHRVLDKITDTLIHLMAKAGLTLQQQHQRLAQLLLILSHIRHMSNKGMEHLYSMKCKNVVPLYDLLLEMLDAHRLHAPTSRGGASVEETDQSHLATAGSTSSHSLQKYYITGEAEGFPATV
Compound,estradiol binding / estradiol displacement [1],further results
"CC(C)(C)c1cc(O)c(C(C)(C)C)cc1O [Example 7, Di t-Butyl Hydroquinone]",no estradiol binding,estradiol binding / estradiol displacement ([1]; listed as di-tert butyl hydroquinone): no displacement; estradiol displacement at the alpha receptor [2]: no displacement; estradiol displacement at the beta receptor [3]: no displacement
Biphenol [Example 6],no estradiol binding,estradiol displacement at the alpha receptor [2]: no displacement
Spiro Biindane Bisphenol [Example 5],no displacement; also recorded: no estradiol binding,
"C[C@]12CC[C@@H]3c4ccc(O)cc4CC[C@H]3[C@@H]1CC[C@@H]2O [A, 17b-estradiol, reference compound]",binds at a very low concentration,
Benzophenone bisphenol [reference compound],undesirable estradiol displacement at low concentration,
"CC(c1ccccc1)(c1ccc(O)cc1)c1ccc(O)cc1 [D, Bisphenol Acetophenone, reference compound]",displace estradiol at low concentrations,
Bis Hydroxy Phenyl Menthane [reference compound],displace estradiol at low concentrations,
"Oc1cccc(O)c1 [Example 4, Resorcinol]",no estradiol binding,estradiol displacement at the alpha receptor [2]: no detectible estradiol displacement; estradiol displacement at the beta receptor [3]: no detectible estradiol displacement
"O=C1c2ccccc2C(c2ccc(O)cc2)(c2ccc(O)cc2)N1c1ccccc1 [Example 3, N-Phenyl Phenolphthalein Bisphenol]",no estradiol binding,estradiol binding / estradiol displacement ([1]; listed as N-phenyl phenyl phenolphthalein): no displacement; estradiol displacement at the alpha receptor [2]: no detectible estradiol displacement; estradiol displacement at the beta receptor [3]: no detectible estradiol displacement
"O=C1OC(c2ccc(O)cc2)(c2ccc(O)cc2)c2ccccc21 [O, Phenolphthalein, reference compound]",undesirable estradiol displacement at low concentration,
"Cc1cc(C(C)(C)c2cc(C)c(O)c(C)c2)cc(C)c1O [Example 1, Tetra Methyl BPA]",no estradiol binding,
Dimethyl Acetophenone Bisphenol [reference compound],displace estradiol at low concentrations,
"Oc1ccc(Oc2ccc(O)cc2)cc1 [Example C, Dihydroxy Diphenyl Ether, reference compound]",displace estradiol at low concentrations,
"CC(C)(c1ccccc1)c1ccc(O)cc1 [B, p-Cumyl Phenol, reference compound]",displace estradiol at low concentrations,
"Oc1ccccc1 [Example 2, Phenol]",no estradiol binding,IC50 ([1]; highest concentration tested 2.5×E-4 M): ≥ 250 µM
"CC(C)(c1ccc(O)cc1)c1cccc(C(C)(C)c2ccc(O)cc2)c1 [K, Bisphenol M, reference compound]",displace estradiol at low concentrations,
"Cc1cc(O)ccc1O [Example 8, Methyl Hydroquinone]",no displacement; also recorded: no estradiol binding,estradiol displacement at the beta receptor [3]: no alpha or beta estradiol displacement
"Diphenolic Acid Methyl Ester [F, reference compound]",displace estradiol at low concentrations,
"Cc1cc(C2(c3ccc(O)c(C)c3)CCCCC2)ccc1O [G, Dimethyl Cyclohexyl Bisphenol, reference compound]",displace estradiol at low concentrations,
